In patent US20100028395A1, “COMPOSITIONS CONTAINING N-ACETYLGLUCOSAMINE FOR USE IN DERMO-COSMETOLOGY AND AESTHETIC MEDICINE” (ROTTAPHARM S.P.A., priority 2007, published 2010):

Tests used:
Format in all cases: cell-based
[1] = tested on: Human fibroblasts, Detroit 551 ATCC CCL III; experiment: Stimulation of protein synthesis in human fibroblast cultures (Lowry method)
Method: The following have been used: • Human fibroblasts, Detroit 551 ATCC CCL III from LGC Promochem (Milan, Italy); • Human keratinocyte primary culture: HEKA, Cascade Biologics, cat. 005-5C. Test substances and concentrations
The substances and concentrations tested are those reported below (on both fibroblasts and keratinocytes): • CA: 0.13, 0.66, 1.32, and 2.64 mg/ml • NAG: 0.1, 0.5, 1.0, and 2.0 mg/ml
The method is identical to that already described for collagen and elastin with the difference that, following the addition of the test substances into the culture medium, the medium has been substituted daily for three days. Each sample has been tested in duplicate and the experiments have been repeated twice. The parameter of interest, i.e. protein synthesis, has been evaluated at 24, 48 and 72 hours on separate plates. Untreated cell cultures have been used as controls.
Protein has been assayed using the Lowry method [Lowry et al. 1951] consisting of a Biuret reduction reaction envisaging the use of Folin-Ciocalteau reagent as chromophore, with a yellow to blue colour change and spectrophotometric measurement at 750 nm [Creighton et al. 1984; Sengupta et al. 1993].
The protein content of the cultures in question has been obtained from comparison of their optical densities with a titration curve made using albumin as a protein standard.
Evaluation of the effect of the substances tested, at the various concentrations and times, on cultures of both fibroblasts and keratinocytes has been expressed in both absolute terms (expressed protein production in mg/ml) and as percentage increase or decrease with respect to control cultures.
The percentage difference increase or decrease of the effects exerted by CA and NAG, over various days and at the corresponding concentrations, have then been calculated, with evaluation of their potential statistical significance by means of the test Student “t” test.

[2] = tested on: Human fibroblasts, Detroit 551 ATCC CCL III; experiment: Stimulation of collagen synthesis in human fibroblast cultures (Sircol assay); conditions: 24 h
From the text: The scope of the test has been the evaluation and the comparison of the potential stimulation exerted by the test substances on the expression of collagen and elastin in “in vitro” cultures of skin-derived cells, such as fibroblasts. The test in question, even though conducted “in vitro”, can be considered to be predictive of the effects of use of the same substances “in vivo”. […] The samples have been dissolved directly in the culture medium. Each sample has been tested in duplicate and the experiments have been repeated twice. The parameters of interest have been determined after 24 hours on separate plates. Untreated cell cultures have been used as controls. A commercially available kit (Sircol™, biodye science) which uses the capacity of the stain Sirius Red to interact with the basic side chains of the aminoacids present in collagen itself, has been used for collagen assays. De novo collagen synthesis has been evaluated in the culture medium following treatment with the test substances, following the protocol provided with the kit, and by using the calibration curve obtained employing the collagen standard contained in turn in the kit. Evaluation of the effects of the substances tested, at the various concentrations, on fibroblast cultures, has been expressed as the absolute and percent increase or decrease of collagen and elastin expression, with respect to the corresponding control culture, after 24 hours of incubation. The percentage difference increase or decrease of the effects exerted by CA and NAG, at corresponding concentrations, have then been calculated, with consequent evaluation of their potential statistical significance by means of the test Student “t” test.

[3] = tested on: Human fibroblasts, Detroit 551 ATCC CCL III; experiment: Stimulation of elastin synthesis in human fibroblast cultures (Fastin assay); conditions: 24 h
From the text: The scope of the test has been the evaluation and the comparison of the potential stimulation exerted by the test substances on the expression of collagen and elastin in “in vitro” cultures of skin-derived cells, such as fibroblasts. The test in question, even though conducted “in vitro”, can be considered to be predictive of the effects of use of the same substances “in vivo”.
Human fibroblasts, Detroit 551 ATCC CCL III from LGC Promochem (Milan, Italy) have been used.
The substances and concentrations tested have been the same as those already described for stage B of the test on the stimulation of HA expression, i.e.: • CA: 0.66, 1.32, 1.98, 2.64 and 3.3 mg/ml • NAG: 0.5, 1.0, 1.5, 2.0 and 2.5 mg/ml • ASS: 0.16, 0.32, 0.48, 0.64 and 0.80 mg/ml
Cells have been plated out in 96 well plates, 2500 cells/well for 24 hours in cell growth medium ([…], DMEM)+10% foetal calf serum (FCS). Fresh culture medium, enriched with just 5% FCS and containing the substances to be tested, so as to reach the final concentrations desired, has then been added. The samples have been dissolved directly in the culture medium. Each sample has been tested in duplicate and the experiments have been repeated twice. The parameters of interest have been determined after 24 hours on separate plates. Untreated cell cultures have been used as controls.
Elastin has been assayed using a commercially available test (Fastin™, biodye science). The assay is based on the interaction of 5,10,15,20-tetraphenyl-21,23-porphyrin with elastin molecules.
De novo elastin synthesis has been evaluated in the culture medium following treatment with the test substances, following the protocol provided with the test, and by using the calibration curve obtained employing the elastin standard contained in the kit itself.
Evaluation of the effects of the substances tested, at the various concentrations, on fibroblast cultures, has been expressed as the absolute and percent increase or decrease of collagen and elastin expression, with respect to the corresponding control culture, after 24 hours of incubation.
The percentage difference increase or decrease of the effects exerted by CA and NAG, at corresponding concentrations, have then been calculated, with consequent evaluation of their potential statistical significance by means of the test Student “t” test.

## CC(=O)N[C@@H](C=O)[C@@H](O)[C@H](O)[C@H](O)CO [NAG, N-acetyl-2-amino-2 deoxyglucose]
[1]; NAG 0.10 mg/ml, 24 hours
  Expr. prot. from NAG % incr. over baseline: −14.6%
  Expr. prot. from NAG (mg/ml) - Mean +/− st. dev.: 0.70 ± 0.11 mg/mL
[1]; NAG 0.10 mg/ml, 48 hours
  Expr. prot. from NAG % incr. over baseline: −7.8%
  Expr. prot. from NAG (mg/ml) - Mean +/− st. dev.: 0.95 ± 0.08 mg/mL
[1]; NAG 0.10 mg/ml, 72 hours
  Expr. prot. from NAG % incr. over baseline: −6.4%
  Expr. prot. from NAG (mg/ml) - Mean +/− st. dev.: 1.03 ± 0.18 mg/mL
[1]; NAG 0.50 mg/ml, 24 hours
  Expr. prot. from NAG % incr. over baseline: +31.7%
  Expr. prot. from NAG (mg/ml) - Mean +/− st. dev.: 1.08 ± 0.29 mg/mL
[1]; NAG 0.50 mg/ml, 48 hours
  Expr. prot. from NAG % incr. over baseline: −9.7%
  Expr. prot. from NAG (mg/ml) - Mean +/− st. dev.: 0.93 ± 0.08 mg/mL
[1]; NAG 0.50 mg/ml, 72 hours
  Expr. prot. from NAG % incr. over baseline: +3.6%
  Expr. prot. from NAG (mg/ml) - Mean +/− st. dev.: 1.14 ± 0.16 mg/mL
[1]; NAG 1.00 mg/ml, 24 hours
  Expr. prot. from NAG % incr. over baseline: +35.4%
  Expr. prot. from NAG (mg/ml) - Mean +/− st. dev.: 1.11 ± 0.22 mg/mL
[1]; NAG 1.00 mg/ml, 48 hours
  Expr. prot. from NAG % incr. over baseline: −21.4%
  Expr. prot. from NAG (mg/ml) - Mean +/− st. dev.: 0.81 ± 0.11 mg/mL
[1]; NAG 1.00 mg/ml, 72 hours
  Expr. prot. from NAG % incr. over baseline: −5.5%
  Expr. prot. from NAG (mg/ml) - Mean +/− st. dev.: 1.04 ± 0.20 mg/mL
[1]; NAG 2.00 mg/ml, 24 hours
  Expr. prot. from NAG (mg/ml) - Mean +/− st. dev.: 1.24 ± 0.17 mg/mL
[1]; NAG 2.00 mg/ml, 48 hours
  Expr. prot. from NAG % incr. over baseline: +6.8%
  Expr. prot. from NAG (mg/ml) - Mean +/− st. dev.: 1.10 ± 0.20 mg/mL
[1]; NAG 2.00 mg/ml, 72 hours
  Expr. prot. from NAG % incr. over baseline: +0.91%
  Expr. prot. from NAG (mg/ml) - Mean +/− st. dev.: 1.11 ± 0.19 mg/mL
[2]; NAG 0.50 mg/ml
  Collagen (%) (Diff. from baseline): +1.64%
  Collagen(μg/ml) (Diff. from baseline): +0.07 μg/ml
[2]; NAG 1.00 mg/ml
  Collagen (%) (Diff. from baseline): +30.28%
  Collagen(μg/ml) (Diff. from baseline): +1.29 μg/ml
[2]; NAG 1.50 mg/ml
  Collagen (%) (Diff. from baseline): +36.15%
  Collagen(μg/ml) (Diff. from baseline): +1.54 μg/ml
[2]; NAG 2.00 mg/ml
  Collagen (%) (Diff. from baseline): +32.86%
  Collagen(μg/ml) (Diff. from baseline): +1.33 μg/ml
[2]; NAG 2.50 mg/ml
  Collagen (%) (Diff. from baseline): +47.65%
  Collagen(μg/ml) (Diff. from baseline): +2.03 μg/ml
[3]; NAG 0.50 mg/ml
  Elastin (μg/ml) (Diff. from baseline): +11.21 μg/ml
  Elastin (μg/ml) (Mean ± st. dev.): 16.29 ± 0.83 µg/mL
[3]; NAG 1.00 mg/ml
  Elastin (%) (Diff. from baseline): +278.94%
  Elastin (μg/ml) (Diff. from baseline): +14.17 μg/ml
  Elastin (μg/ml) (Mean ± st. dev.): 19.25 ± 0.99 µg/mL
[3]; NAG 1.50 mg/ml
  Elastin (%) (Diff. from baseline): +320.28%
  Elastin (μg/ml) (Diff. from baseline): +16.27 μg/ml
  Elastin (μg/ml) (Mean ± st. dev.): 21.35 ± 1.01 µg/mL
[3]; NAG 2.00 mg/ml
  Elastin (%) (Diff. from baseline): +345.27%
  Elastin (μg/ml) (Diff. from baseline): +17.54 μg/ml
  Elastin (μg/ml) (Mean ± st. dev.): 22.62 ± 1.03 µg/mL
[3]; NAG 2.50 mg/ml
  Elastin (μg/ml) (Diff. from baseline): +17.22 μg/ml
  Elastin (μg/ml) (Mean ± st. dev.): 22.30 ± 1.04 µg/mL
